Measured values from patent US20230192701A1, “BICYCLIC KINASE INHIBITORS AND USES THEREOF” (iOmx Therapeutics AG, priority 2020, published 2023).
Values after ≈ are worked out from the molar mass of the structure shown.

What was measured:
[1] = molecular target: SIK2 (Homo sapiens, UniProt Q9H0K1); assay: radiometric protein kinase assay (33PanQinase Activity Assay), SIK2; type: biochemical; conditions: ATP 1.0 μM, substrate RBER-CHKtide
Experimental: (§1) The IC50s of the compounds against the SIK family of protein-serine/threonine kinases (SIK2 and SIK3) were determined as followed. Briefly, a radiometric protein kinase assay (33PanQinase® Activity Assay) was used for measuring the kinase activity of the two protein kinases. The kinase assays were performed in 96-well FlashPlates™ from PerkinElmer (Boston, Mass., USA) in a 50 uL reaction volume. The reaction cocktail was pipetted in four steps in the following order: • […] (standard buffer/[gamma-33P]-ATP) • 10 uL of ATP solution (in water) • 5 uL of test compound (in 10% DMSO) • 20 uL enzyme/substrate mix
(§2) The following amounts of enzyme and applicable substrate were used per well:
(§3) The reaction cocktails were incubated at 30 °C for 60 minutes. The reaction was stopped with 50 uL of 2% (v/v) H3PO4, plates were aspirated and washed two times with 200 μL 0.9% (w/v) NaCl. Incorporation of 33Pi was determined with a microplate scintillation counter (Microbeta, Wallac). All assays were performed with a BeckmanCoulter/SAGIAN™ Core System.

[2] = molecular target: SIK3 (Homo sapiens, UniProt Q9Y2K2); assay: radiometric protein kinase assay (33PanQinase Activity Assay), SIK3; type: biochemical; conditions: ATP 1.0 μM, substrate RBER-CHKtide
SIK3, sequence (Q9Y2K2 whole entry): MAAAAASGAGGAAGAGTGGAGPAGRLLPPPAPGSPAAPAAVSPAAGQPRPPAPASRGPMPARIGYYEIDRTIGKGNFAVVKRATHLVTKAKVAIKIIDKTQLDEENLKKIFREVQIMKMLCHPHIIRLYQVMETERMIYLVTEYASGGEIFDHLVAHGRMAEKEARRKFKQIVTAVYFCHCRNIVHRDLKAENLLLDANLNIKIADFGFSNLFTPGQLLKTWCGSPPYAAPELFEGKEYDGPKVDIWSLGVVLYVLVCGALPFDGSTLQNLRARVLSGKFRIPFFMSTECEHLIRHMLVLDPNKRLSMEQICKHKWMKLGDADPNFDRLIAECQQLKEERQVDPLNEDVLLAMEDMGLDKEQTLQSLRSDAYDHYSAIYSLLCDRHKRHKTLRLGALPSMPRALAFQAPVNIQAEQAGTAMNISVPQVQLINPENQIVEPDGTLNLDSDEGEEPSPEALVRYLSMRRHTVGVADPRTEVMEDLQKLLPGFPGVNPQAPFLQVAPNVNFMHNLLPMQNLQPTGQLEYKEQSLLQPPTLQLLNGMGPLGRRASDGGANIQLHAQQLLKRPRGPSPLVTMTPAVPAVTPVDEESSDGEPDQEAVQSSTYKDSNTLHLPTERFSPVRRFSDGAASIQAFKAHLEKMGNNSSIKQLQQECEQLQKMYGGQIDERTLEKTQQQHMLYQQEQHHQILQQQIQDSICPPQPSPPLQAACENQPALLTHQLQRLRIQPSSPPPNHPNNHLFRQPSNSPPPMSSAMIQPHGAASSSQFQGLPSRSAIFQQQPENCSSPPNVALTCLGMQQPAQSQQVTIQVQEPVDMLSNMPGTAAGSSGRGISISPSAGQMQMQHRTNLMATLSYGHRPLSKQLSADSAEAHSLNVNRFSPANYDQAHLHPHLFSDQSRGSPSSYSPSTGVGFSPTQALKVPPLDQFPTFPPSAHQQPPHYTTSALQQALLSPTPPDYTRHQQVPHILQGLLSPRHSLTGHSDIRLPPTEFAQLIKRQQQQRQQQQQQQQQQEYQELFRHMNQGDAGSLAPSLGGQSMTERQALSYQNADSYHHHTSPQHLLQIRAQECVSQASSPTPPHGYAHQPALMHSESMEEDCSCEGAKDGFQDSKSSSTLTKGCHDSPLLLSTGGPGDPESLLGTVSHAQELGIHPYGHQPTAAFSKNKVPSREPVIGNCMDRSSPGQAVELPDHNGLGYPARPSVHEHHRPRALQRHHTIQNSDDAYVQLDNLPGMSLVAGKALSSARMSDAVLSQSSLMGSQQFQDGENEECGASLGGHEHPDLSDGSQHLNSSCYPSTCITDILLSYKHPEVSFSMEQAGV
Experimental: as §1, §2, §3

[3] = Kinetic solubility assay; type: physicochemical; conditions: aqueous buffer, kinetic from dmso stock; PBS buffer pH 7.4, 1.0% DMSO, 24 h at RT
Experimental: The Kinetic solubility assay was conducted as follows. 4 uL compound of the 50 mM DMSO stock was added to deep well plate containing 396 uL PBS buffer (pH 7.4). The DMSO content in the sample was 1.0%, and the compound concentration 500 μM. The sample plate was vortexed at 800 rpm for 24 h at RT on a thermomixer. At the end of the incubation period, the sample plate was centrifuged at 4000 rpm for 10 mins. 3 uL of supernatant was transferred to well containing 297 uL of ISTD in Acetonitrile water:50:50, v/v and analysed in LC-MS/MS against a calibration curve (CC).

[4] = Human hepatocyte stability; type: in vitro ADME; conditions: human hepatocytes, 37°C
Experimental: Determination of human and mice hepatocyte stability was conducted as follows. 200 uL of the respective hepatocyte cell suspension (2×10e6/ml) was preincubated at 37° C. for 10 min. Then, 200 uL of a 2 uM working stock of the test compound was added to the hepatocyte cell suspension, and the mixture was further incubated at 37° C. and 500 rpm. The reaction was stopped at 30, 60 and 120 min by precipitating 50 uL of the incubation mixture with 200 uL of acetonitrile. Samples were vortexed for 5 min at 1200 rpm and centrifuged at 4000 rpm for 10 min. Intrinsic clearance and half-life were analysed using LC-MS/MS.
LC-MS/MS was performed for all assays using a C18 column (50*4.6 mm, 5 um) for the CaCo2 assay, or a C18 column (50*4.6 mm, 4 um) for the other assays. The mobile phases used were 10 mM Ammonium Acetate with 0.1% Formic acid (aqueous) and 100% Acetonitrile (organic).

[5] = pharmacokinetic study, plasma level after single po or iv administration; type: in vivo, male CD1 mice; conditions: mice
Experimental: Screening PK properties of compounds of Formula (I) are additionally determined, including plasma and free plasma concentration, as well as Cmax. For example, the free concentration of compound after a dose of eg 30 mg/kg po (per os) administered mice can be determined for certain time points after administrations.
To further investigate PK properties of kinase inhibitors of Formula (I), the compounds are tested for in vivo drug exposure and potency in a full pharmacokinetic study with oral administration (per os, po).
The experimental procedure and the determination of the pharmacokinetic parameters are investigated after single administration of each compound per gavage in male CD1 mice (Intonation Research Laboratories (Hyderabad, India)). The compounds are diluted in 5% DMSO+5% Solutol+90% water. Plasma level (eg sampling 0.25 h; 0.5 h; 1 h; 1.5 h; 2 h; 4 h; 6 h; 12 h; 24 h after drug administration) of the compounds are analysed by LC-MS/MS and pharmacokinetic parameters are determined using non-compartmental analysis and nominal dose levels of eg 30 mg/kg po and 1 mg/kg iv. Three animals are analysed per time point and each mouse is used for three plasma samplings in total.

SIK2, sequence (Q9H0K1 whole entry): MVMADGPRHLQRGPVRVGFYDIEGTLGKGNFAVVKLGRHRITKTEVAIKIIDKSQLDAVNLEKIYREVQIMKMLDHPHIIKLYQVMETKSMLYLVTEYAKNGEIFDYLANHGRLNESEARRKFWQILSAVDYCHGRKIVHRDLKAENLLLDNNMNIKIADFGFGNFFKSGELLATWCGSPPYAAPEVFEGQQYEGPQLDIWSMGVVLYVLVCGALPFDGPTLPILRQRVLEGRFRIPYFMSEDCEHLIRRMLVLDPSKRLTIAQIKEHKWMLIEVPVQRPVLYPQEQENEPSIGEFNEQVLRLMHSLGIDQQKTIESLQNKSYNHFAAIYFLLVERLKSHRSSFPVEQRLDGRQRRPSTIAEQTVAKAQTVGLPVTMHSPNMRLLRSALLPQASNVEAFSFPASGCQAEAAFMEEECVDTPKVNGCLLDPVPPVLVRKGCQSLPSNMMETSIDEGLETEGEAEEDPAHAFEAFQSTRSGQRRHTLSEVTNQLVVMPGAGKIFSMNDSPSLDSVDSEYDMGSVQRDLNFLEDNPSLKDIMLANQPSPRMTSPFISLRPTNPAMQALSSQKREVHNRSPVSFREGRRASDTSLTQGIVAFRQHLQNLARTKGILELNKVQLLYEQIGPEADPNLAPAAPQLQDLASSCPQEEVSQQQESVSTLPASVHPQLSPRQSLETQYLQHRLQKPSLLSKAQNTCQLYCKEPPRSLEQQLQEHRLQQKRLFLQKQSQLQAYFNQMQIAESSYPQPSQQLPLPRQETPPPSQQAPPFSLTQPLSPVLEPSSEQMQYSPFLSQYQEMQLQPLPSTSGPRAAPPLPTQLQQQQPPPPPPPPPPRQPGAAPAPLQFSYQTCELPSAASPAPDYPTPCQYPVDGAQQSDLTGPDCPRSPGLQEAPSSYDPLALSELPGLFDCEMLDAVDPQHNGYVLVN

- IC50 [1]: 100 to 200 nM
- IC50 [2]: 200 to 400 nM
- solubility kinetic at 24 h [3]: 6.9 µM (≈ 4.18 µg/mL)
- half-life at 1 uM [4]: 11 h
- compound detectable in plasma after 24 h ([5]; 1 mg/kg iv): detectable after 24 hours
- compound detectable in plasma after 24 h ([5]; 30 mg/kg po): detectable after 24 hours
Structure (SMILES): COc1ccc(N2C(=O)N(c3c(C)csc3Cl)Cc3cnc(Nc4ccc(C5CCN(C)CC5)cc4OC)nc32)nc1 [AA1, 3-(2-chloro-4-methylthiophen-3-yl)-7-((2-methoxy-4-(1-methylpiperidin-4-yl)phenyl)amino)-l-(5-methoxypyridin-2-yl)-3,4-dihydropyrimido[4,5-d]pyrimidin-2(1H)-one]
